Laboratory results published in the supplement of paper PMC10702517.
± gives the standard deviation.

Assay: chemical recovery from spiked human plasma; higher = better extraction
Conditions: pooled human plasma; extraction method: SPE only (HLB 96-well)
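Throughout, for chemical recovery by SPE of plasma after PDMS sampling: over 400 spiked chemicals quantified by LC-HRMS or GC-HRMS via internal standard calibration, recovery relative to spike mix added to unspiked plasma extract to correct matrix effects.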

First: C[N+]1(C)CCCCC1 [Mepiquat]
Second: CCOc1ccc(C(C)(C)COCc2cccc(Oc3ccccc3)c2)cc1 [Etofenprox]
The chemical recovery of the first is lower: 0.813 ± 0.44% for the first, 4.05 ± 1.4% for the second.

First: CCCCCCCCCCOS(=O)(=O)O [Decylsulfate]
Second: CCCCCCCCCCS(=O)(=O)O [1-Decanesulfonic-acid]
The chemical recovery of the first is lower: 18.8 ± 4.3% for the first, 31.5 ± 2.9% for the second.

Same assay, conditions: pooled human plasma; extraction method: SPE only (HLB 96-well), PES comparison experiment

Going from `Nc1ccc(Sc2ccc(N)cc2)cc1` [4,4'-Thiodianiline] to `c1cc2c3c(cccc3c1)CC2` [Acenaphthene], the chemical recovery falls from 16.5 ± 2% to 3.64 ± 1.1%.

Going from `O=c1cc(O)c2ccccc2o1` [4-Hydroxycoumarin] to `CCC1(c2ccccc2)C(=O)NCNC1=O` [Primidone], the chemical recovery rises from 13.2 ± 3.1% to 41.9 ± 4.5%.

Compared with `COCC(C)N(C(=O)C(=O)O)c1c(C)csc1C` (stereo not drawn) [Dimethenamid OA], `Cc1cccc(C)c1NC(=O)CS(=O)(=O)O` is lower in chemical recovery: 51.7 ± 4.2% for the first, 38.3 ± 6.6% for the second.

Going from `CC(NC(C)(C)C)C(=O)c1cccc(Cl)c1` (stereo not drawn) [Bupropion] to `O=C(O)COc1ccc(Cl)cc1Cl` [2,4-Dichlorophenoxyacetic acid], the chemical recovery rises from 38.7 ± 8.2% to 56.3 ± 5.5%.

`C[C@]12C=CC3=C4CCC(=O)C=C4CCC3C1CC[C@@H]2O` (stereo partly drawn) [Trenbolone] and `CC(=O)OCC(=O)[C@@]1(O)CC[C@H]2[C@@H]3CCC4=CC(=O)CC[C@]4(C)[C@@]3(F)[C@@H](O)C[C@@]21C` [Fludrocortisone-21-acetate] are within error of each other in chemical recovery: 47.4 ± 6.8% for the first, 46.7 ± 4.8% for the second.

`O=C(CC(C(=O)OC1CCCCC1)S(=O)(=O)O)OC1CCCCC1` (stereo not drawn) [Dicyclohexyl sulfosuccinate] and `C[C@]12CCC(=O)C=C1[C@H](O)C[C@@H]1[C@@H]2[C@@H](O)C[C@@]2(C)[C@H]1CC[C@]2(O)C(=O)CO` [6-beta-Hydroxycortisol] are within error of each other in chemical recovery: 37.1 ± 6.9% for the first, 45.1 ± 7.2% for the second.

Going from `C[N+]1(C)CCCCC1` [Mepiquat] to `CCCCCCCCCCOS(=O)(=O)O` [Decylsulfate], the chemical recovery rises from 11.3 ± 9.5% to 30.8 ± 9%.

Same assay, conditions: pooled human plasma; extraction method: solvent precipitation (ACN + hexane)

`Nc1ccc(Sc2ccc(N)cc2)cc1` [4,4'-Thiodianiline] and `Nc1ccc(Oc2ccc(N)cc2)cc1` [4,4'-Oxydianiline] are within error of each other in chemical recovery: 42.1 ± 9.6% for the first, 26.3 ± 9% for the second.

Going from `c1ccc2c(c1)cc1ccc3cccc4ccc2c1c34` [Benzo(a)pyrene] to `Cc1ccc2c(c1)c1cccc3ccc4cccc2c4c31` [10-Methylbenzo[e]pyrene], the chemical recovery falls from 99.1 ± 12% to 10.9 ± 1.3%.

First: O=C(O)C(F)(F)C(F)(F)C(F)(F)C(F)(F)C(F)(F)C(F)(F)C(=O)O [Perfluorosuberic-acid-]
Second: O=C(O)c1cc(C(=O)O)cc([N+](=O)[O-])c1 [5-Nitroisophthalic-acid]
The chemical recovery of the first is higher: 71.9 ± 7.3% for the first, 0.332 ± 0.35% for the second.

Going from `CNC(=O)c1ccccc1` [N-Methylbenzamide] to `CNS(=O)(=O)c1ccccc1` [N-Methylbenzenesulfonamide], the chemical recovery falls from 88 ± 3.1% to 77.4 ± 3.4%.

Compared with `CNC(=O)O/N=C(\C)SC` [Methomyl], `CCCOC(=O)NCCCN(C)C` [Propamocarb] is lower in chemical recovery: 75.8 ± 3.8% for the first, 54.9 ± 3.7% for the second.

Compared with `CC1(C)C(=O)NC(=O)NC1=O` [5,5-Dimethylbarbituric-acid], `CCCC(C)C1(CC)C(=O)NC(=O)NC1=O` (stereo not drawn) [Pentobarbital] is higher in chemical recovery: 39.8 ± 10% for the first, 75.7 ± 6.9% for the second.

Going from `CCC(Cc1ccccc1)(C(=O)c1ccc(N2CCOCC2)cc1)N(C)C` (stereo not drawn) [Irgacure-369] to `CCOc1ccc(C(C)(C)COCc2cccc(Oc3ccccc3)c2)cc1` [Etofenprox], the chemical recovery falls from 77.2 ± 5.5% to 5.02 ± 0.29%.

First: CC(NC(C)(C)C)C(=O)c1cccc(Cl)c1 (stereo not drawn) [Bupropion]
Second: CC(C)OC(=O)Nc1cccc(Cl)c1 [Chlorpropham]
The chemical recovery of the first is lower: 23.5 ± 3.1% for the first, 43.8 ± 4.5% for the second.

`CCn1cc(C(=O)O)c(=O)c2cc(F)c(N3CCNCC3)cc21` [Norfloxacin] and `O=C(O)COc1ccc(Cl)cc1Cl` [2,4-Dichlorophenoxyacetic acid] are within error of each other in chemical recovery: 63.3 ± 5.8% for the first, 73.2 ± 6.1% for the second.

Compared with `N[C@@H](Cc1cc(I)c(Oc2ccc(O)c(I)c2)c(I)c1)C(=O)O` [3,3',5-Triiodo-L-thyronine], `CC(Oc1ccc(Oc2cnc3cc(Cl)ccc3n2)cc1)C(=O)O` (stereo not drawn) [Quizalofop] is higher in chemical recovery: 56.3 ± 2.7% for the first, 67.8 ± 5.7% for the second.

First: CN1CCCC1=O [N-Methyl-2-pyrrolidone]
Second: C[N+]1(C)CCCCC1 [Mepiquat]
The chemical recovery of the first is lower: 1.36 ± 2.4% for the first, 108 ± 18% for the second.

Compared with `CCCC1CC(C(=O)NC(C(C)Cl)C2OC(SC)C(O)C(O)C2O)N(C)C1` (stereo not drawn) [Clindamycin], `Nc1nc(NC2CC2)c2ncn([C@H]3C=C[C@@H](CO)C3)c2n1` [Abacavir] is higher in chemical recovery: 65.5 ± 3.8% for the first, 77 ± 3.4% for the second.

`CNC(=O)c1cc(Oc2ccc(NC(=O)Nc3ccc(Cl)c(C(F)(F)F)c3)cc2)ccn1` [Sorafenib] and `COC(=O)c1ccc(C(=O)OC)cc1` [Dimethyl-terephthalate] are within error of each other in chemical recovery: 74.4 ± 5.8% for the first, 64.5 ± 14% for the second.

Going from `CCCCCCCCCCCCS(=O)(=O)O` [1-Dodecanesulfonic-acid] to `CCCCCCCCCCS(=O)(=O)O` [1-Decanesulfonic-acid], the chemical recovery rises from 52.1 ± 2.3% to 61.5 ± 1.9%.

Compared with `COc1ccccc1OCC(O)COC(N)=O` (stereo not drawn) [Methocarbamol], `CCC1(c2ccccc2)C(=O)NCNC1=O` [Primidone] is higher in chemical recovery: 70.6 ± 2% for the first, 76.5 ± 3.6% for the second.

`CCCC(Cn1cncn1)c1ccc(Cl)cc1Cl` (stereo not drawn) [Penconazole] and `Clc1ccc(C(c2ccc(Cl)cc2)C(Cl)(Cl)Cl)cc1` [4,4'-DDT] are within error of each other in chemical recovery: 67.7 ± 4.2% for the first, 56.7 ± 8.1% for the second.

First: O=C(CC(C(=O)OC1CCCCC1)S(=O)(=O)O)OC1CCCCC1 (stereo not drawn) [Dicyclohexyl sulfosuccinate]
Second: CCCCCCCCCCOS(=O)(=O)O [Decylsulfate]
The chemical recovery of the first is higher: 71.8 ± 3.4% for the first, 50.4 ± 1.6% for the second.

Compared with `NNc1ccccc1` [Phenylhydrazine], `CN/C(=N/CC1CCOC1)N[N+](=O)[O-]` (stereo not drawn) [Dinotefuran] is higher in chemical recovery: 40.7 ± 8.9% for the first, 76.3 ± 3.7% for the second.

Assay: chemical recovery by SPE of plasma after PDMS sampling; higher = better extraction
Conditions: pooled human plasma; extraction method: HLB SPE of plasma after PES; equilibration time (d): 1

Going from `Nc1ccc(Sc2ccc(N)cc2)cc1` [4,4'-Thiodianiline] to `c1ccc2c(c1)cc1ccc3cccc4ccc2c1c34` [Benzo(a)pyrene], the “chemical recovery by SPE of plasma” value falls from 11.7 ± 2.8% to 1.26 ± 1.1%.

Going from `O=c1cc(O)c2ccccc2o1` [4-Hydroxycoumarin] to `Brc1ccc(Oc2ccc(Br)cc2Br)c(Br)c1` [BDE47], the “chemical recovery by SPE of plasma” value falls from 69.3 ± 16% to 1.38 ± 1%.

Compared with `COCC(C)N(C(=O)C(=O)O)c1c(C)csc1C` (stereo not drawn) [Dimethenamid OA], `CC(C)(C)c1ccc(S(N)(=O)=O)cc1` [4-tert-Butylbenzenesulfonamide] is lower in “chemical recovery by SPE of plasma” value: 52.2 ± 8.1% for the first, 11 ± 0.85% for the second.

`c1ccc2c(c1)-c1ccc3ccc4cccc5cc-2c1c3c45` [Indeno(1,2,3-cd)pyrene] and `c1cc2ccc3ccc4ccc5cccc6c(c1)c2c3c4c56` [Benzo(ghi)perylene] are within error of each other in “chemical recovery by SPE of plasma” value: 1.57 ± 0.15% for the first, 2.59 ± 4.5% for the second.

Same assay, conditions: pooled human plasma; extraction method: HLB SPE of plasma after PES; equilibration time (d): 3

Going from `Nc1ccc(Sc2ccc(N)cc2)cc1` [4,4'-Thiodianiline] to `c1cc2ccc3ccc4ccc5cccc6c(c1)c2c3c4c56` [Benzo(ghi)perylene], the “chemical recovery by SPE of plasma” value falls from 10.6 ± 2.5% to 1.28 ± 1.1%.

Compared with `O=c1cc(O)c2ccccc2o1` [4-Hydroxycoumarin], `Brc1ccc(Oc2ccc(Br)cc2Br)c(Br)c1` [BDE47] is lower in “chemical recovery by SPE of plasma” value: 64.3 ± 4.7% for the first, 1.56 ± 0.066% for the second.

Compared with `COCC(C)N(C(=O)C(=O)O)c1c(C)csc1C` (stereo not drawn) [Dimethenamid OA], `CCc1cccc(C)c1N(C(=O)CS(=O)(=O)O)[C@@H](C)C(=O)O` is lower in “chemical recovery by SPE of plasma” value: 58.9 ± 3.8% for the first, 28.5 ± 9.3% for the second.

Going from `c1ccc2c(c1)-c1ccc3ccc4cccc5cc-2c1c3c45` [Indeno(1,2,3-cd)pyrene] to `CC(C)(C)c1ccc(S(N)(=O)=O)cc1` [4-tert-Butylbenzenesulfonamide], the “chemical recovery by SPE of plasma” value rises from 1.3 ± 0.43% to 17 ± 1.5%.

Same assay, conditions: pooled human plasma; extraction method: HLB SPE of plasma after PES; equilibration time (d): 6

Compared with `Nc1ccc(Sc2ccc(N)cc2)cc1` [4,4'-Thiodianiline], `c1cc2ccc3ccc4ccc5cccc6c(c1)c2c3c4c56` [Benzo(ghi)perylene] is lower in “chemical recovery by SPE of plasma” value: 7.77 ± 1.4% for the first, 1.37 ± 0.46% for the second.

Going from `O=c1cc(O)c2ccccc2o1` [4-Hydroxycoumarin] to `Brc1ccc(Oc2ccc(Br)cc2Br)c(Br)c1` [BDE47], the “chemical recovery by SPE of plasma” value falls from 78 ± 15% to 1.34 ± 0.21%.

First: COCC(C)N(C(=O)C(=O)O)c1c(C)csc1C (stereo not drawn) [Dimethenamid OA]
Second: CCc1cccc(C)c1N(C(=O)CS(=O)(=O)O)[C@@H](C)C(=O)O
The “chemical recovery by SPE of plasma” value of the first is higher: 51.8 ± 2.6% for the first, 33.9 ± 4.1% for the second.

Going from `c1ccc2c(c1)-c1ccc3ccc4cccc5cc-2c1c3c45` [Indeno(1,2,3-cd)pyrene] to `CC(C)(C)c1ccc(S(N)(=O)=O)cc1` [4-tert-Butylbenzenesulfonamide], the “chemical recovery by SPE of plasma” value rises from 1.16 ± 0.33% to 11.3 ± 1.4%.
